Source: patent US11629171B2, “Beta-hairpin peptidomimetics” (POLYPHOR AG, priority 2017, dated 2023)
In brackets after ≈: the same amount, converted by molar mass. Where a SMILES comes first, the peptide text is derived from it. Bridges are numbered along the chain shown (N, C = ends). Roman numbers before positions name the chains, in order. [ ]: non-standard residue; d: D form. Tle = CC(C)(C)[C@H](N)C(=O)O; dDab = NCC[C@@H](N)C(=O)O; Dab = NCC[C@H](N)C(=O)O; Dap = NC[C@H](N)C(=O)O

How the values were obtained:
Type in all cases: cell-based
[1] = system: human red blood cells (hRBC); assay: Hemolysis; conditions: red cells of human, 1 h, 200
Outline: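 Percent lysis of human red cells was derived from OD540 of the supernatant, referenced to 2% Triton X-100, after a 1 h, 37° C incubation of 20% (v/v) cells with 200 μg/mL peptide.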

[2] = system: Pseudomonas aeruginosa ATCC 27853; conditions: ATCC 27853
Outline: (§1)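 Broth microdilution per CLSI; MH-II (cation-adjusted) + 0.002% P-80 final; ~10^6 CFU/mL inoculum; 2-fold peptide series; 35° C, 18-20 h; MIC = no visible growth, μg/mL.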

[3] = system: Klebsiella pneumoniae 968733; conditions: 968733
Outline: as §1

[4] = system: Klebsiella pneumoniae SSI #3010; conditions: SSI #3010
Outline: as §1

[5] = system: Acinetobacter baumannii 872842; conditions: 872842
Outline: as §1

[6] = system: Enterobacter cloacae 848840; conditions: 848840
Outline: as §1

[7] = system: Escherichia coli ATCC 25922; conditions: ATCC 25922
Outline: as §1

[8] = system: Acinetobacter baumannii DSM 30008; conditions: DSM 30008
Outline: as §1

[9] = system: Escherichia coli 926415; conditions: 926415
Outline: as §1

MIC [2]	MIC [3]	MIC [4]	MIC [5]	MIC [6]	MIC [7]	MIC [8]	MIC [9]	Pseudomonas aeruginosa ATCC 27853 MIC [2]	Klebsiella pneumoniae SSI #3010 MIC [4]	Escherichia coli ATCC 25922 MIC [7]	Acinetobacter baumannii DSM 30008 MIC [8]	Compound	Hemolysis at 200 μg/mL [1]
0.125 µg/mL (≈ 0.0521 µM)	0.0625 µg/mL (≈ 0.0261 µM)	0.0625 µg/mL (≈ 0.0261 µM)	0.01562 µg/mL (≈ 0.00651 µM)	0.0625 µg/mL (≈ 0.0261 µM)	0.0625 µg/mL (≈ 0.0261 µM)	0.01562 µg/mL (≈ 0.00651 µM)	0.0625 µg/mL (≈ 0.0261 µM)	–	–	–	–	CC(=O)N[C@H](C(=O)N[C@H]1CSSC[C@@H](C(=O)N[C@@H](CO)C(N)=O)NC(=O)[C@H](C(C)(C)C)NC(=O)[C@H](CO)NC(=O)[C@H](Cc2c[nH]c3ccccc23)NC(=O)[C@H](CO)NC(=O)[C@@H](CCN)NC(=O)[C@H](CCC(=O)N[C@@H](CCN)C(=O)N[C@H](C(=O)N[C@@H](CN)C(=O)N[C@H]2CCNC(=O)[C@H]([C@@H](C)O)NC(=O)[C@H](CCN)NC(=O)[C@H](CCN)NC(=O)[C@H](CC(C)C)NC(=O)[C@@H](CC(C)C)NC(=O)[C@H](CCN)NC2=O)[C@@H](C)O)NC(=O)[C@H](CN)NC(=O)[C@H](Cc2ccc(O)cc2)NC1=O)C(C)C [Ex. 117] (I: Ac-VCY[Dap]E[dDab]SWS[Tle]CS-NH2 / II: [Dab]T[Dap][Dab][Dab][dL]L[Dab][Dab]T; disulfide I:2-I:11; amide I:5-II:N; lactam II:4-II:C)	2%
0.25 µg/mL (≈ 0.104 µM)	0.125 µg/mL (≈ 0.0518 µM)	0.125 µg/mL (≈ 0.0518 µM)	0.03125 µg/mL (≈ 0.013 µM)	0.25 µg/mL (≈ 0.104 µM)	0.03125 µg/mL (≈ 0.013 µM)	0.0625 µg/mL (≈ 0.0259 µM)	0.0625 µg/mL (≈ 0.0259 µM)	–	–	–	–	CC(=O)N[C@H](C(=O)N[C@H]1CSSC[C@@H](C(=O)N[C@@H](CO)C(N)=O)NC(=O)[C@H](C(C)(C)C)NC(=O)[C@H](CO)NC(=O)[C@H](Cc2c[nH]c3ccccc23)NC(=O)[C@H](CCN)NC(=O)[C@@H](CCN)NC(=O)[C@H](CCC(=O)N[C@@H](CCN)C(=O)N[C@H](C(=O)N[C@@H](CN)C(=O)N[C@H]2CCNC(=O)[C@H]([C@@H](C)O)NC(=O)[C@H](CCN)NC(=O)[C@H](CCN)NC(=O)[C@H](CC(C)C)NC(=O)[C@@H](CC(C)C)NC(=O)[C@H](CCN)NC2=O)[C@@H](C)O)NC(=O)[C@H](CO)NC(=O)[C@H](Cc2ccc(O)cc2)NC1=O)C(C)C [Ex. 133] (I: Ac-VCYSE[dDab][Dab]WS[Tle]CS-NH2 / II: [Dab]T[Dap][Dab][Dab][dL]L[Dab][Dab]T; disulfide I:2-I:11; amide I:5-II:N; lactam II:4-II:C)	2%
–	0.25 µg/mL (≈ 0.103 µM)	–	0.0625 µg/mL (≈ 0.0257 µM)	0.0625 µg/mL (≈ 0.0257 µM)	–	–	0.125 µg/mL (≈ 0.0513 µM)	0.0625 µg/mL	0.125 µg/mL	0.01562 µg/mL	0.01562 µg/mL	CC(=O)N[C@H](C(=O)N[C@H]1CSSC[C@@H](C(=O)N[C@@H](CO)C(N)=O)NC(=O)[C@H](C(C)C)NC(=O)[C@H](CO)NC(=O)[C@H](Cc2c[nH]c3ccccc23)NC(=O)[C@H](CO)NC(=O)[C@@H](CCN)NC(=O)[C@H](CCC(=O)N[C@@H](CCN)C(=O)N[C@H](C(=O)N[C@@H](CN)C(=O)N[C@H]2CCNC(=O)[C@H]([C@@H](C)O)NC(=O)[C@H](CCN)NC(=O)[C@H](CCN)NC(=O)[C@H](CC(C)C)NC(=O)[C@@H](CC(C)C)NC(=O)[C@H](CCN)NC2=O)[C@@H](C)O)NC(=O)[C@H](Cc2c[nH]cn2)NC(=O)[C@H](Cc2ccc(O)cc2)NC1=O)C(C)C [Ex. 328] (I: Ac-VCYHE[dDab]SWSVCS-NH2 / II: [Dab]T[Dap][Dab][Dab][dL]L[Dab][Dab]T; disulfide I:2-I:11; amide I:5-II:N; lactam II:4-II:C)	1%
